Results on one compound are retold here after US9428753B2, “Use of LXR antagonists for treatment of side effects of elevated glucocorticoid levels” (The Governing Council of the University of Toronto, priority 2013, dated 2016).

Data set [1] has as its target T1, LXRβ (Homo sapiens, UniProt P55055).
T1 sequence (P55055 222-460 limits assumed): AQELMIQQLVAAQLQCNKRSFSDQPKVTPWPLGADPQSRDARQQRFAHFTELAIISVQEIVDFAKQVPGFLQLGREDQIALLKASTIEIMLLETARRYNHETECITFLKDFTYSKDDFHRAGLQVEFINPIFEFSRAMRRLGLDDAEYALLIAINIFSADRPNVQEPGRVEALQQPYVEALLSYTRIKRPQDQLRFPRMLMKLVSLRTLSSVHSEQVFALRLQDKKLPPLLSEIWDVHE
The data set is described as follows: GAL4-LXRβ / UAS-luc transfection assay in mouse primary hepatocytes. The source says: (§1) RLU=relative luciferase units.

For data set [2], the system named is tyrosine aminotransferase (TAT). The data set can be described thus: TAT gene expression in mouse primary hepatocytes. The format is cell-based. The following applies: WT, LXRα−/− and LXRβ−/− hepatocytes; 100 nM Dex + 10 μM GSK2033. The protocol:
T09 treatment was used as a positive control for LXR activity. (D) Glucose output over 24 hrs from LXRα−/− and LXRβ−/− mouse primary hepatocytes following Dex 100 nM±10 μM GSK2033 treatment. (E) Glucose output over 8 hrs from WT hepatocytes following Dex 500 nM±10 μM GSK2033 treatments. […] Legend: V=vehicle, G=GSK2033 (LXR antagonist); D=dexamethasone (GR agonist); and T09=T0901317 (LXR agonist).

In another data set the test system is Srebp-1c. The data set is described as follows: Srebp-1c gene expression in mouse primary hepatocytes. Format: cell-based. The following applies: WT, LXRα−/− and LXRβ−/− hepatocytes; 250 nM T09 + 10 μM GSK2033.
Data set [3] concerns mouse primary hepatocytes. The data set can be described thus: Glucose production (glucose output) in mouse primary hepatocytes. Format: cell-based. The protocol:
T09 treatment was used as a positive control for LXR activity. (D) Glucose output over 24 hrs from LXRα−/− and LXRβ−/− mouse primary hepatocytes following Dex 100 nM±10 μM GSK2033 treatment. (E) Glucose output over 8 hrs from WT hepatocytes following Dex 500 nM±10 μM GSK2033 treatments. Data represent the Avg±SD, N=3. *P<0.05 by One way ANOVA, Student Newman Keuls. Legend: V=vehicle, G=GSK2033 (LXR antagonist); D=dexamethasone (GR agonist); and T09=T0901317 (LXR agonist).
While not wishing to be limited by theory, subsequent to conducting these initial studies it was realized that 24 hour incubation of hepatocytes in gluconeogenic media may be too long. In the literature, for this type of assay, primary heptocytes are usually incubated up to 12 hours. As such, for subsequent studies of the present application, WT cells were treated with 500 nM Dex for 8 hours to be able to measure detectable levels of glucose in the media.

For the next data set, the system named is LXRα−/− mice. The data set is described as follows: In vivo 5 day Dex ± GSK2033 co-treatment study. Also on record: species or system mouse. As for the experimental part:
LXRα−/− mice were treated with Vehicle (Veh), Dex (2.5 mg/kg) b.i.d. or GSK2033 40 mg/kg (once a day) along with Dex b.i.d. for 5 days. (A) Plasma glucose levels were measured by a colorimetric kit (Wako). (B) Spleen weights were measured at the time of sacrifice, and are presented normalized to body weight. (C) Liver Pepck, FOXO1, Pgc 1α, FGF21, GR and LXRβ gene expression measured by QPCR. Data represent the Avg±SEM, N=2-5. *P<0.05 by One way ANOVA, Student Newman Keuls.
Having observed promising results with GSK2033 co-treatment with Dex in-vitro (GSK2033-mediated suppression of GC-induced gluconeogenic side effects without affecting desirable immune suppression); a study was conducted, in which whole body LXRα−/− mice were treated with vehicle (Veh), 2.5 mg/kg bid (subcutaneous injection) Dex or Dex+40 mg/kg GSK2033 (once a day intraperitoneal injection) for 5 days, and sacrificed at lights on.

For another data set, the system named is G6Pc. The data set is described as follows: G6Pc gene expression in mouse primary hepatocytes. The following applies: LXRα−/− hepatocytes.
The next data set addresses T2, LXRα (Homo sapiens, UniProt Q13133).
T2 sequence (Q13133 209-447 limits assumed): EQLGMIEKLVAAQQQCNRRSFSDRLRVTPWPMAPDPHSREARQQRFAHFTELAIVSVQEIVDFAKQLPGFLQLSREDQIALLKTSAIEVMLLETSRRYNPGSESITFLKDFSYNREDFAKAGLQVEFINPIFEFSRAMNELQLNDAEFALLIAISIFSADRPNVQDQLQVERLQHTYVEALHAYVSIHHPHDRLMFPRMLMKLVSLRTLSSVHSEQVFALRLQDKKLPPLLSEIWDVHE
The data set is described as follows: GAL4-LXRα / UAS-luc transfection assay in mouse primary hepatocytes.

The target in data set [4] is T1, LXRβ. The data set is described as follows: GAL4-LXRβ / UAS-luc co-transfection reporter assay in HEK293 cells. Also on record: co-transfecting UAS-reporter and GAL4-LBD of the nuclear receptors LXRα, LXRβ and GR; GAL4 (fusion partner); expressed in transfected cells; host or cells: HEK293 cells; mouse primary hepatocytes. The format is cell-based. As for the experimental part:
as §1, §1
Further experiments were then carried out to determine the inhibitory potencies for the individual LXR isoforms in HEK 293 cells by co-transfecting UAS-reporter and GAL4-LBD of the nuclear receptors LXRα, LXRβ and GR and then treating with 8 different concentrations of GSK2033. To assess suppression of ligand activated receptors, the transfected cells were co-treated with increasing doses of GSK2033, in addition to T09091317 or Dex (dexamethasone) (at EC80 of LXR isoforms and GR, respectively).
A number of experiments were carried out to determine the relative inhibitory potencies of GSK2033, Amgen 54 and DMHCl for the individual LXR isoforms in HEK 293 cells by co-transfecting UAS-reporter and GAL4-LBD of the nuclear receptors LXRα, LXRβ and GR and then treating with 6 different concentrations of GSK2033, Amgen 54 and DMHCl.

Where [5] appears, read: across the treatment groups (Veh, Dex, Dex+GSK2033).

Description for G6Pc: For the gene expression studies, the isolated hepatocytes were cultured at least 24 hrs prior to treatment with 10 μM Cortisol, 10 μM Triamcinolone acetonide, 10 μM Prednisone, and 100 nM Dex all±10 μM GSK2033 overnight, and then harvested to isolate mRNA.

Broadly, the IC50 is the concentration needed to halve the response being measured. The low end stands for inhibition by little substance, the high end for a need for much substance. Turning to `Cc1cc(C)c(S(=O)(=O)N(Cc2ccc(-c3cccc(S(C)(=O)=O)c3)cc2)Cc2ccc(C(F)(F)F)o2)c(C)c1` [GSK2033, 2,4,6-trimethyl-N-((3′-(methylsulfonyl)-[1,1′-biphenyl]-4-yl)methyl)-N-((5-(trifluoromethyl)furan-2-yl)methyl)benzenesulfonamide], the IC50 on LXRβ [1] came to 292 nM; at LXRβ [4] (IC50 against LXRβ, Example 1, T0901317 at EC80 (100 nM), 8 concentrations), 37 nM; against LXRβ [4] (IC50 to inhibit LXRβ, Example 7, T0901317 100 nM, 6 concentrations), 6.44 nM. In addition, the “right-shift of LXRβ IC50, primary hepatocytes vs HEK293” value on LXRβ [1] is listed as ~10 fold. The “selectivity for LXRβ vs. LXRα” value on LXRβ [1] (in hepatocytes) came to 2.5 fold. In data set [2], the “Dex induction of TAT under GSK2033 co-treatment” value was “not altered”. The “T09 induction of Srebp-1c under GSK2033 co-treatment” value in the data set with Srebp-1c is “significantly decreased”. The “glucose secretion (glucose output)” value in data set [3] (LXRα−/− hepatocytes, 100 nM Dex + 10 μM GSK2033, 24 hours) was 1.2 fold; in data set [3] (WT hepatocytes, 500 nM Dex + 10 μM GSK2033, 8 hours), 1.25 fold. In addition, the “spleen size (weight normalized to body weight)” value in the data set with LXRα−/− mice (Dex 2.5 mg/kg bid + GSK2033 40 mg/kg, 5 days, vs Veh) is given as “significantly smaller”. Further, the “liver FOXO 1 gene induction” value with LXRα−/− mice (Dex+GSK2033 group) is “normalized”. The “liver Pepck gene induction” value with LXRα−/− mice (Dex+GSK2033 group) is given as “normalized”. The “liver GR gene expression” value in the data set on LXRα−/− mice (setting [5]) was “did not change”. Besides, the “liver LXR gene expression” value in the data set on LXRα−/− mice (setting [5]) is recorded as “did not change”. Besides, the G6Pc expression was found to be 4.9 fold in the data set with G6Pc (Example 6, 100 nM Dex + 10 μM GSK2033); 7.5 fold in the data set with G6Pc (Example 6, 10 μM Cortisol + 10 μM GSK2033); 9.8 fold in the data set with G6Pc (Example 6, 10 μM Prednisone + 10 μM GSK2033); 8.6 fold in the data set on G6Pc (Example 6, 10 μM Triamcinolone acetonide + 10 μM GSK2033); 5.3 fold in the data set with G6Pc (Example 8, 100 nM Dex + 10 μM LXR antagonist). For the same compound, the “right-shift of LXRα IC50, primary hepatocytes vs HEK293” value on LXRα was ~10 fold. The “basal repression of LXRβ” value at LXRβ [4] (preliminary experiment, 3 doses) is recorded as “basal repression”.
